Literature values, collected in patent US20130079416A1 (BOIRON, priority 2010, published 2013).
Where two headings read alike, the source gives them in different places.

How the values were obtained:
[1] = human
[2] = rats, long time and very high doses, alone or in combination with phenazone (Johansson, 1981)
[3] = rat, oral, multiple doses; methemoglobinemia-carboxyhaemoglobin, changes in blood cell and erythrocyte count

CCOc1ccc(NC(C)=O)cc1 [phenacetin, N-(4-ethoxyphenyl)acetamide]
Lowest toxic dose (TDL0) ([1]; acute, route not indicated): 74 mg/kg
Lowest toxic dose (TDL0) ([1]; oral, multiple doses, tumorigenic-carcinogenic according to RTECS criteria, renal tumours): 80 mg/kg/63 mg/kg/63 years (intermittent)
Incidence of renal tumours [2]: slightly increases the incidence of renal tumours
Lowest toxic dose (TDL0) [3]: 10 mg/kg/ mg/kg/4 weeks (intermittent)
